Legend:
Assay in all cases: area under the viability dose-response curve (AUC) (AUC (arbitrary units, max 500 = no viability loss)); higher = less sensitive (higher viability)
Conditions in all cases: exposure time: 120 h; concentration range: 0.1 nM - 10 µM, 6 doses
3E = test system: 3E (embryonal-type hepatoblastoma organoid)
Method: (§1)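 Patient-derived hepatoblastoma tumor organoids (about 50 organoids per well, 384-well plates, medium with 5% BME) were treated with the PMC pediatric cancer drug library. Each drug was tested in duplicate at 6 concentrations (0.1 nM to 10 µM, 10-fold steps).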

13F2 = test system: 13F2 (fetal-II hepatoblastoma organoid with high liver markers)
Method: as §1

27F1 = test system: 27F1 (fetal-I hepatoblastoma organoid with intermediate liver markers)
Method: as §1

135F2 = test system: 135F2 (fetal-II hepatoblastoma organoid with high liver markers)
Method: as §1

17F1 = test system: 17F1 (fetal-I hepatoblastoma organoid with intermediate liver markers)
Method: as §1

10F2 = test system: 10F2 (fetal-II hepatoblastoma organoid with high liver markers)
Method: as §1

17E = test system: 17E (embryonal-type hepatoblastoma organoid)
Method: as §1

22E = test system: 22E (embryonal-type hepatoblastoma organoid)
Method: as §1

8F1 = test system: 8F1 (fetal-I hepatoblastoma organoid with intermediate liver markers)
Method: as §1

13E = test system: 13E (embryonal-type hepatoblastoma organoid)
Method: as §1

96F1 = test system: 96F1 (fetal-I hepatoblastoma organoid with intermediate liver markers)
Method: as §1

SMILES	area under the viability dose-response curve (3E)	area under the viability dose-response curve (13F2)	area under the viability dose-response curve (27F1)	area under the viability dose-response curve (135F2)	area under the viability dose-response curve (17F1)	area under the viability dose-response curve (10F2)	area under the viability dose-response curve (17E)	area under the viability dose-response curve (22E)	area under the viability dose-response curve (8F1)	area under the viability dose-response curve (13E)	area under the viability dose-response curve (96F1)
CCOC(=O)CCNc1cc(N2CCc3ccccc3CC2)nc(-c2ccccn2)n1 [GSK J4]	445	438	> 500	468	483	493	452	476	494	449	492
CN(C)C/C=C/C(=O)Nc1ccc(C(=O)N2CCC[C@@H](Nc3ncc(Cl)c(-c4c[nH]c5ccccc45)n3)C2)cc1 [THZ531]	263	376	336	367	332	332	374	320	344	360	340
Cc1c(Cn2c(C)nc3c(C(=O)O)cc(N4CCOCC4)cc32)cccc1C(F)(F)F	499	488	498	> 500	498	500	495	495	> 500	488	497
C=CCn1c(=O)c2cnc(Nc3ccc(N4CCN(C)CC4)cc3)nc2n1-c1cccc(C(C)(C)O)n1 [Adavosertib]	335	354	386	353	383	328	336	423	438	404	361
CNCc1ccc(-c2[nH]c3cc(F)cc4c3c2CCNC4=O)cc1 [Rucaparib]	490	458	> 500	452	489	446	489	475	476	484	> 500
COc1ccc(-c2ccc3c(N4CCOC[C@@H]4C)nc(N4CCOC[C@@H]4C)nc3n2)cc1CO [AZD8055]	316	278	468	342	456	259	331	396	466	366	445
C#Cc1cccc(Nc2ncnc3cc4c(cc23)OCCOCCOCCO4)c1 [Icotinib]	474	406	442	474	465	376	487	> 500	495	497	464
COc1ncc(-c2nc3c(n2C(C)C)[C@H](c2ccc(Cl)cc2)N(c2cc(Cl)cn(C)c2=O)C3=O)c(OC)n1 [Siremadlin]	306	246	359	328	395	200	318	414	373	383	385
CC[C@@H]1C(=O)N(C)c2cnc(Nc3ccc(C(=O)N[C@H]4CC[C@H](N5CCN(CC6CC6)CC5)CC4)cc3OC)nc2N1C(C)C [Volasertib]	278	278	255	257	331	227	249	326	351	263	281
O=C(NC1CCNCC1)c1n[nH]cc1NC(=O)c1c(Cl)cccc1Cl [AT7519]	332	361	456	396	381	378	406	371	381	348	387
O=c1cc(-c2cccc3c2Sc2ccccc2S3)oc(N2CCOCC2)c1	490	500	> 500	> 500	> 500	455	498	497	> 500	498	> 500
C[C@H]1Oc2cc(cnc2N)-c2c(nn(C)c2C#N)CN(C)C(=O)c2ccc(F)cc21 [Lorlatinib]	459	448	471	498	481	435	416	471	476	450	463
COCCNCc1ccc(-c2cc3nccc(Oc4ccc(NC(=O)C5(C(=O)Nc6ccc(F)cc6)CC5)cc4F)c3s2)nc1 [Sitravatinib]	417	425	442	432	457	374	375	431	441	436	433
CO[C@@H]1[C@H](N(C)C(=O)c2ccccc2)C[C@H]2O[C@]1(C)n1c3ccccc3c3c4c(c5c6ccccc6n2c5c31)C(=O)NC4 [Midostaurin]	338	335	> 500	365	442	372	364	417	454	427	431
CC(C)C[C@H](NC(=O)[C@H](CCc1ccccc1)NC(=O)CN1CCOCC1)C(=O)N[C@@H](Cc1ccccc1)C(=O)N[C@@H](CC(C)C)C(=O)[C@@]1(C)CO1 [Carfilzomib]	242	217	332	194	269	323	247	347	350	362	355
CC[C@@]1(O)C(=O)OCc2c1cc1n(c2=O)Cc2cc3ccccc3nc2-1 [Camptothecin]	201	174	255	227	277	219	263	361	295	304	208
CC[C@H](Nc1nc(NCc2cnc(C)cc2C)c2ncn(C(C)C)c2n1)[C@@H](C)O [CYC065]	382	328	347	387	366	325	381	419	377	400	333

SMILES	area under the viability dose-response curve (3E)	area under the viability dose-response curve (13F2)	area under the viability dose-response curve (27F1)	area under the viability dose-response curve (135F2)	area under the viability dose-response curve (17F1)	area under the viability dose-response curve (10F2)	area under the viability dose-response curve (17E)	area under the viability dose-response curve (22E)	area under the viability dose-response curve (8F1)	area under the viability dose-response curve (13E)	area under the viability dose-response curve (96F1)
CC[C@H](NC(=O)[C@H](C)NC)C(=O)N1C[C@@H](O)C[C@H]1Cc1c(-c2[nH]c3cc(F)ccc3c2C[C@@H]2C[C@H](O)CN2C(=O)[C@H](CC)NC(=O)[C@H](C)NC)[nH]c2cc(F)ccc12 [Birinapant]	237	483	> 500	483	467	425	434	204	468	473	480
CC[C@]1(O)C[C@H]2CN(CCc3c([nH]c4ccccc34)[C@@](C(=O)OC)(c3cc4c(cc3OC)N(C=O)[C@H]3[C@@](O)(C(=O)OC)[C@H](OC(C)=O)[C@]5(CC)C=CCN6CC[C@]43[C@@H]65)C2)C1 [Vincristine]	125	222	218	209	180	188	181	193	243	174	196
COc1cccc2c1C(=O)c1c(O)c3c(c(O)c1C2=O)C[C@@](O)(C(=O)CO)C[C@@H]3O[C@H]1C[C@H](N)[C@H](O)[C@H](C)O1 [Doxorubicin]	263	258	333	308	311	281	278	336	384	305	311
CN1CCN(c2ccc3nc(-c4c(N)c5c(F)cccc5[nH]c4=O)[nH]c3c2)CC1 [Dovitinib]	396	400	477	455	468	418	390	412	499	417	433
Nc1nc(=S)c2[nH]cnc2[nH]1 [6-Thioguanine]	484	381	443	390	457	462	432	448	476	437	412
C[C@@H]1COCCN1c1cc(C2([S@](C)(=N)=O)CC2)nc(-c2cc[nH]c3nccc2-3)n1 [Ceralasertib]	442	450	479	448	478	475	462	462	> 500	468	450
CC[C@H](Nc1ncnc2[nH]cnc12)c1nc2cccc(F)c2c(=O)n1-c1ccccc1 [Idelalisib]	491	496	492	> 500	495	492	488	492	484	497	> 500
CNC(=O)c1cc(Oc2ccc(NC(=O)Nc3ccc(Cl)c(C(F)(F)F)c3)cc2)ccn1 [Sorafenib]	448	440	458	431	448	443	437	452	453	454	459
COc1ccc([C@@H](O)c2cc(-c3ncnc4cc(N5CCOCC5)ccc34)c(F)cc2Cl)nn1 [Nedisertib]	435	394	493	463	486	404	409	462	479	453	462
COc1cccc2c1C(=O)c1c(O)c3c(c(O)c1C2=O)C[C@@](O)(C(C)=O)C[C@@H]3O[C@H]1C[C@H](N)[C@H](O)[C@H](C)O1 [Daunorubicin]	273	253	305	283	301	247	287	317	400	301	284
Oc1nc(-c2ccc(C(F)(F)F)cc2)nc2c1CSCC2 [XAV-939]	496	477	> 500	486	> 500	456	> 500	491	490	486	> 500
CN(Cc1cnc2nc(N)nc(N)c2n1)c1ccc(C(=O)N[C@@H](CCC(=O)O)C(=O)O)cc1 [Methotrexate]	483	274	366	294	334	429	451	452	382	381	345
COc1cc2c(Oc3ccc4[nH]c(C)cc4c3F)ncnc2cc1OCCCN1CCCC1 [Cediranib]	390	402	431	438	459	430	425	414	> 500	428	454
CN1CCN(c2ccc(C(=O)Nc3n[nH]c4ccc(Cc5cc(F)cc(F)c5)cc34)c(NC3CCOCC3)c2)CC1 [Entrectinib]	424	418	484	438	448	399	404	429	460	418	454
C[C@@H]1COC(Nc2ccc3ncnc(Nc4ccc(OCc5nccs5)c(Cl)c4)c3c2)=N1 [Varlitinib]	485	372	433	465	447	382	480	481	476	476	430
O=C(Nc1cnn2ccc(N3CCC[C@@H]3c3cc(F)ccc3F)nc12)N1CC[C@H](O)C1 [Larotrectinib]	450	> 500	> 500	495	467	> 500	453	> 500	473	487	481

— the supplement of paper PMC11579375
